This is an account of results in article PMC5218480 (PLoS ONE, 2017).

This assay deals with MV-4-11 cells. Description: Gene expression microarray analysis (Affymetrix PrimeView) and GSEA. Also on record: RFU PODN (11730768_x_at) / Fold change /veh PODN (11730768_x_at) / RFU LINC00158 (11744669_a_at) / Fold change /veh LINC00158 (11744669_a_at) / RFU DUSP10 (11751237_a_at) / Fold change /veh DUSP10 (11751237_a_at) / RFU ID3 (11757404_x_at) / Fold change /veh ID3 (11757404_x_at) / RFU PLEKHG5 (11737974_s_at) / Fold change /veh PLEKHG5 (11737974_s_at) / RFU LRRC4B (11730491_at) / Fold change /veh LRRC4B (11730491_at) / RFU GIMAP4 (11747438_a_at) / Fold change /veh GIMAP4 (11747438_a_at) / RFU KRT8 (11758183_x_at) / Fold change /veh KRT8 (11758183_x_at) / RFU CNN1 (11734310_a_at) / Fold change /veh CNN1 (11734310_a_at) / RFU VPS37D (11726825_at) / Fold change /veh VPS37D (11726825_at) / RFU C10orf10 (11716522_x_at) / Fold change /veh C10orf10 (11716522_x_at) / RFU KIR2DL2 /// KIR2DL4 /// KIR2DL5A /// KIR2DL5B /// KIR2DS1 /// KIR2DS2 /// KIR2DS3 /// KIR2DS4 /// KIR3DL3 /// KIR3DL3 /// KIR3DS1 (11738374_at) / Fold change /veh KIR2DL2 /// KIR2DL4 /// KIR2DL5A /// KIR2DL5B /// KIR2DS1 /// KIR2DS2 /// KIR2DS3 /// KIR2DS4 /// KIR3DL3 /// KIR3DL3 /// KIR3DS1 (11738374_at) / RFU C1QL1 (11718748_at) / Fold change /veh C1QL1 (11718748_at) / RFU TMPRSS4 (11747572_a_at) / Fold change /veh TMPRSS4 (11747572_a_at) / RFU HAMP (11756126_x_at) / Fold change /veh HAMP (11756126_x_at) / RFU RNFT2 (11725882_a_at) / Fold change /veh RNFT2 (11725882_a_at) / RFU NR4A2 (11747474_a_at) / Fold change /veh NR4A2 (11747474_a_at) / RFU ABCC12 (11746883_a_at) / Fold change /veh ABCC12 (11746883_a_at) / RFU TMEM136 (11760407_x_at) / Fold change /veh TMEM136 (11760407_x_at) / RFU CLDN22 /// WWC2 (11732394_at) / Fold change /veh CLDN22 /// WWC2 (11732394_at) / RFU HLA-DPB1 (11760878_x_at) / Fold change /veh HLA-DPB1 (11760878_x_at) / RFU SPINT1 (11716480_a_at) / Fold change /veh SPINT1 (11716480_a_at) / RFU GAP43 (11754022_s_at) / Fold change /veh GAP43 (11754022_s_at) / RFU A4GNT (11735810_at) / Fold change /veh A4GNT (11735810_at) / RFU PRB3 (11715151_x_at) / Fold change /veh PRB3 (11715151_x_at) / RFU TUBB4B (11761932_at) / Fold change /veh TUBB4B (11761932_at) / RFU CAPN14 (11732068_a_at) / Fold change /veh CAPN14 (11732068_a_at) / RFU TMCC2 (11721928_a_at) / Fold change /veh TMCC2 (11721928_a_at) / RFU IRGQ (11745062_a_at) / Fold change /veh IRGQ (11745062_a_at) / RFU FAM174B (11720279_a_at) / Fold change /veh FAM174B (11720279_a_at) / RFU TMPRSS4 (11748680_a_at) / Fold change /veh TMPRSS4 (11748680_a_at) / RFU FAM212B (11763350_a_at) / Fold change /veh FAM212B (11763350_a_at) / RFU PLEKHG5 (11743358_a_at) / Fold change /veh PLEKHG5 (11743358_a_at) / RFU ZSCAN30 (11745921_a_at) / Fold change /veh ZSCAN30 (11745921_a_at) / RFU CMKLR1 (11741424_a_at) / Fold change /veh CMKLR1 (11741424_a_at) / RFU LOC101060620 /// MAPK8IP1 (11723275_at) / Fold change /veh LOC101060620 /// MAPK8IP1 (11723275_at) / RFU SPTSSB (11747773_x_at) / Fold change /veh SPTSSB (11747773_x_at) / RFU PRSS12 (11739890_at) / Fold change /veh PRSS12 (11739890_at) / RFU BIN1 (11741810_x_at) / Fold change /veh BIN1 (11741810_x_at) / RFU WNT11 (11732464_a_at) / Fold change /veh WNT11 (11732464_a_at) / RFU C10orf10 (11716521_a_at) / Fold change /veh C10orf10 (11716521_a_at) / RFU C5orf56 (11738089_at) / Fold change /veh C5orf56 (11738089_at) / RFU CYB561 (11721691_x_at) / Fold change /veh CYB561 (11721691_x_at) / RFU ANKRD19P (11752326_a_at) / Fold change /veh ANKRD19P (11752326_a_at) / RFU OR2T12 /// OR2T33 /// OR2T8 (11738714_s_at) / Fold change /veh OR2T12 /// OR2T33 /// OR2T8 (11738714_s_at) / RFU VCAN (11748164_a_at) / Fold change /veh VCAN (11748164_a_at) / RFU JSRP1 (11732532_at) / Fold change /veh JSRP1 (11732532_at) / RFU KRTAP10-11 (11738290_x_at) / Fold change /veh KRTAP10-11 (11738290_x_at) / RFU MYO3A (11730013_a_at) / Fold change /veh MYO3A (11730013_a_at) / RFU EBF3 (11725865_a_at) / Fold change /veh EBF3 (11725865_a_at) / RFU CAMK2N1 (11719241_x_at) / Fold change /veh CAMK2N1 (11719241_x_at) / RFU C5orf56 (11738088_a_at) / Fold change /veh C5orf56 (11738088_a_at) / RFU OLFML3 (11715873_a_at) / Fold change /veh OLFML3 (11715873_a_at) / RFU LOC100653217 /// NTM (11731650_a_at) / Fold change /veh LOC100653217 /// NTM (11731650_a_at) / RFU MAPK11 (11762145_a_at) / Fold change /veh MAPK11 (11762145_a_at) / RFU FIZ1 (11724087_x_at) / Fold change /veh FIZ1 (11724087_x_at) / RFU OASL (11726364_x_at) / Fold change /veh OASL (11726364_x_at) / RFU SOX15 (11748057_x_at) / Fold change /veh SOX15 (11748057_x_at) / RFU CD79A (11719716_a_at) / Fold change /veh CD79A (11719716_a_at) / RFU HIST1H1D (11736915_at) / Fold change /veh HIST1H1D (11736915_at) / RFU CASKIN2 (11723855_a_at) / Fold change /veh CASKIN2 (11723855_a_at) / RFU LOC730098 (11760151_x_at) / Fold change /veh LOC730098 (11760151_x_at) / RFU OR4N2 (11742367_at) / Fold change /veh OR4N2 (11742367_at) / RFU PRRT2 (11749266_a_at) / Fold change /veh PRRT2 (11749266_a_at) / RFU SNX32 (11753110_a_at) / Fold change /veh SNX32 (11753110_a_at) / RFU CDHR5 (11726645_a_at) / Fold change /veh CDHR5 (11726645_a_at) / RFU RCAN1 (11760418_a_at) / Fold change /veh RCAN1 (11760418_a_at) / RFU FAM167A (11723789_a_at) / Fold change /veh FAM167A (11723789_a_at) / RFU FAM26E (11764081_at) / Fold change /veh FAM26E (11764081_at) / RFU ISYNA1 (11749810_s_at) / Fold change /veh ISYNA1 (11749810_s_at) / RFU ACY1 (11761880_at) / Fold change /veh ACY1 (11761880_at) / RFU 11764098_at / Fold change /veh 11764098_at / RFU SAMD14 (11745864_x_at) / Fold change /veh SAMD14 (11745864_x_at) / RFU NPB (11741838_a_at) / Fold change /veh NPB (11741838_a_at) / RFU TMPRSS6 (11731388_a_at) / Fold change /veh TMPRSS6 (11731388_a_at) / RFU KRTAP10-2 (11738614_at) / Fold change /veh KRTAP10-2 (11738614_at) / RFU ARHGAP8 /// PRR5-ARHGAP8 (11727945_x_at) / Fold change /veh ARHGAP8 /// PRR5-ARHGAP8 (11727945_x_at) / RFU KRTAP5-7 /// NADSYN1 (11734609_at) / Fold change /veh KRTAP5-7 /// NADSYN1 (11734609_at) / RFU RASL12 (11751679_a_at) / Fold change /veh RASL12 (11751679_a_at) / RFU CDKN2B (11736163_a_at) / Fold change /veh CDKN2B (11736163_a_at) / RFU PRF1 (11729649_at) / Fold change /veh PRF1 (11729649_at) / RFU, ZNF638 /// ZNF638-IT1 / Fold change vs veh, ZNF638 /// ZNF638-IT1 / RFU, PANK3 / Fold change vs veh, PANK3 / RFU, SH3YL1 / Fold change vs veh, SH3YL1 / RFU, ZEB2 / Fold change vs veh, ZEB2 / RFU, NRIP1 / Fold change vs veh, NRIP1 / RFU, PTTG1IP / Fold change vs veh, PTTG1IP / RFU, CAPN2 / Fold change vs veh, CAPN2 / RFU, MED14 / Fold change vs veh, MED14 / RFU, SNORA58 / Fold change vs veh, SNORA58 / RFU, C1orf63 / Fold change vs veh, C1orf63 / RFU, LRRFIP1 / Fold change vs veh, LRRFIP1 / RFU, NDUFAF7 / Fold change vs veh, NDUFAF7 / RFU, SLC12A2 / Fold change vs veh, SLC12A2 / RFU, IBTK / Fold change vs veh, IBTK / RFU, ESF1 / Fold change vs veh, ESF1 / Fold change vs veh, TMEM50B / RFU, TAOK1 / Fold change vs veh, TAOK1 / RFU, ACBD3 / Fold change vs veh, ACBD3 / RFU, TMA16 / Fold change vs veh, TMA16 / RFU, RWDD3 / Fold change vs veh, RWDD3 / RFU, BCAT1 / Fold change vs veh, BCAT1 / RFU, EDEM3 / Fold change vs veh, EDEM3 / RFU, TMEM33 / Fold change vs veh, TMEM33 / RFU, WDR75 / Fold change vs veh, WDR75 / RFU, AHCTF1 / Fold change vs veh, AHCTF1 / RFU, TFRC / Fold change vs veh, TFRC / RFU, ZDHHC17 / Fold change vs veh, ZDHHC17 / RFU, NOM1 / Fold change vs veh, NOM1 / RFU, ARL8B / Fold change vs veh, ARL8B / RFU, ZBTB11 / Fold change vs veh, ZBTB11 / RFU, TAMM41 / Fold change vs veh, TAMM41 / RFU, KIAA1704 /// LOC100996395 / Fold change vs veh, KIAA1704 /// LOC100996395 / RFU, ING1 / Fold change vs veh, ING1 / RFU, TRMT61B / Fold change vs veh, TRMT61B / RFU, FUBP3 / Fold change vs veh, FUBP3 / RFU, TP53 / Fold change vs veh, TP53 / RFU, TNKS2 / Fold change vs veh, TNKS2 / RFU, ZFP14 / Fold change vs veh, ZFP14 / RFU, ACTR2 / Fold change vs veh, ACTR2 / RFU, PPP3R1 / Fold change vs veh, PPP3R1 / RFU, PIK3R1 / Fold change vs veh, PIK3R1 / RFU, HNRNPA1 / Fold change vs veh, HNRNPA1 / RFU, RNF170 / Fold change vs veh, RNF170 / RFU, ZNF28 / Fold change vs veh, ZNF28 / RFU, RNGTT / Fold change vs veh, RNGTT / RFU, OGT / Fold change vs veh, OGT / RFU, BRD1 / Fold change vs veh, BRD1 / RFU, MARS / Fold change vs veh, MARS / RFU, ZNF655 / Fold change vs veh, ZNF655 / RFU, FAHD1 / Fold change vs veh, FAHD1 / RFU, BDP1 / Fold change vs veh, BDP1 / RFU, LRRCC1 / Fold change vs veh, LRRCC1 / RFU, ARID1A / Fold change vs veh, ARID1A / RFU, ZNF146 / Fold change vs veh, ZNF146 / RFU, ZNF330 / Fold change vs veh, ZNF330 / RFU, GPN3 / Fold change vs veh, GPN3 / RFU, C9orf123 / Fold change vs veh, C9orf123 / RFU, N4BP2L2 / Fold change vs veh, N4BP2L2 / RFU, ARFIP1 / Fold change vs veh, ARFIP1 / RFU, FAM179B / Fold change vs veh, FAM179B / RFU, BCL10 / Fold change vs veh, BCL10 / RFU, UHRF1BP1L / Fold change vs veh, UHRF1BP1L / RFU, BET1 / Fold change vs veh, BET1 / RFU, CNOT2 / Fold change vs veh, CNOT2 / RFU, ZNF268 / Fold change vs veh, ZNF268 / Fold change vs veh, ZNF507 / RFU, DGCR2 / Fold change vs veh, DGCR2 / RFU, WDSUB1 / Fold change vs veh, WDSUB1 / Fold change vs veh, HSP90B1 /// MIR3652 / RFU, ADSS / Fold change vs veh, ADSS / RFU, GK / Fold change vs veh, GK / RFU, ZNF148 / Fold change vs veh, ZNF148 / RFU, TAF9 / Fold change vs veh, TAF9 / RFU, SLC1A5 / Fold change vs veh, SLC1A5 / RFU, SLMO2 / Fold change vs veh, SLMO2 / RFU, ABCC4 / Fold change vs veh, ABCC4 / RFU, LOC101060439 /// RAP1B / Fold change vs veh, LOC101060439 /// RAP1B / RFU, RFX7 / Fold change vs veh, RFX7 / RFU, GTPBP10 / Fold change vs veh, GTPBP10 / RFU, CNEP1R1 / Fold change vs veh, CNEP1R1 / RFU, BIVM-ERCC5 /// ERCC5 / Fold change vs veh, BIVM-ERCC5 /// ERCC5 / RFU, ILF3 / Fold change vs veh, ILF3 / RFU 11762660_at / Fold change /veh 11762660_at / RFU VCAN (11757783_s_at) / Fold change /veh VCAN (11757783_s_at) / RFU DDX43 (11728927_at) / Fold change /veh DDX43 (11728927_at) / RFU KRT8 (11758188_x_at) / Fold change /veh KRT8 (11758188_x_at) / RFU NKD1 (11759106_at) / Fold change /veh NKD1 (11759106_at) / RFU SRD5A1 (11742802_a_at) / Fold change /veh SRD5A1 (11742802_a_at) / RFU TPSAB1 /// TPSB2 (11721975_s_at) / Fold change /veh TPSAB1 /// TPSB2 (11721975_s_at) / RFU GSTM3 (11746129_a_at) / Fold change /veh GSTM3 (11746129_a_at) / RFU IL23R (11737362_x_at) / Fold change /veh IL23R (11737362_x_at) / RFU TMEM51 (11727254_a_at) / Fold change /veh TMEM51 (11727254_a_at) / RFU PIWIL2 (11732686_x_at) / Fold change /veh PIWIL2 (11732686_x_at) / RFU ORM1 (11744905_x_at) / Fold change /veh ORM1 (11744905_x_at) / RFU CCDC152 (11743942_at) / Fold change /veh CCDC152 (11743942_at) / RFU ECM1 (11717891_a_at) / Fold change /veh ECM1 (11717891_a_at) / RFU IL23R (11748794_a_at) / Fold change /veh IL23R (11748794_a_at) / RFU TNFAIP8L3 (11732012_x_at) / Fold change /veh TNFAIP8L3 (11732012_x_at) / RFU MBOAT4 (11741988_at) / Fold change /veh MBOAT4 (11741988_at) / RFU 11764193_at / Fold change /veh 11764193_at / RFU TMEM53 (11763286_at) / Fold change /veh TMEM53 (11763286_at) / RFU MAGEB2 (11727129_at) / Fold change /veh MAGEB2 (11727129_at) / RFU TMEM200A (11744735_a_at) / Fold change /veh TMEM200A (11744735_a_at) / RFU CCDC152 (11751479_a_at) / Fold change /veh CCDC152 (11751479_a_at) / RFU FAM211A (11726209_a_at) / Fold change /veh FAM211A (11726209_a_at) / RFU RGS16 (11746705_a_at) / Fold change /veh RGS16 (11746705_a_at) / RFU VCAN (11755009_s_at) / Fold change /veh VCAN (11755009_s_at) / RFU RHOB (11743442_s_at) / Fold change /veh RHOB (11743442_s_at) / RFU RGS16 (11720943_a_at) / Fold change /veh RGS16 (11720943_a_at) / RFU RGS16 (11720944_at) / Fold change /veh RGS16 (11720944_at) / RFU, VPS4B / Fold change vs veh, VPS4B / RFU, CREB1 / Fold change vs veh, CREB1 / RFU, DNAJC13 / Fold change vs veh, DNAJC13 / RFU, GNAQ / Fold change vs veh, GNAQ / RFU, CDK5R1 / Fold change vs veh, CDK5R1 / RFU, ZRANB3 / Fold change vs veh, ZRANB3 / RFU, CUL4A / Fold change vs veh, CUL4A / RFU, CCNY / Fold change vs veh, CCNY / RFU, UFL1 / Fold change vs veh, UFL1 / RFU, COG3 / Fold change vs veh, COG3 / RFU, DIAPH2 / Fold change vs veh, DIAPH2 / RFU, SKA2 / Fold change vs veh, SKA2 / RFU, AFF3 / Fold change vs veh, AFF3 / RFU, LMF1 / Fold change vs veh, LMF1 / RFU, IPO11 / Fold change vs veh, IPO11 / RFU, DFFB / Fold change vs veh, DFFB / RFU, FOXP1 / Fold change vs veh, FOXP1 / RFU, CARD8 / Fold change vs veh, CARD8 / RFU, STRN3 / Fold change vs veh, STRN3 / RFU, ADK / Fold change vs veh, ADK / RFU, RASSF2 / Fold change vs veh, RASSF2 / RFU, WIPF1 / Fold change vs veh, WIPF1 / RFU, LARP1B / Fold change vs veh, LARP1B / RFU, RASA1 / Fold change vs veh, RASA1 / RFU, RB1 / Fold change vs veh, RB1 / RFU, PPFIA1 / Fold change vs veh, PPFIA1 / RFU, MAT2A / Fold change vs veh, MAT2A / RFU, CCT5 / Fold change vs veh, CCT5 / RFU, WDR92 / Fold change vs veh, WDR92 / RFU, CUX1 / Fold change vs veh, CUX1 / RFU, TTC7A / Fold change vs veh, TTC7A / RFU, TMEM135 / Fold change vs veh, TMEM135 / RFU, DEPTOR / Fold change vs veh, DEPTOR / RFU, CPM / Fold change vs veh, CPM / RFU, DNAJB6 / Fold change vs veh, DNAJB6 / RFU, CACNA2D3 / Fold change vs veh, CACNA2D3 / RFU, DTX4 / Fold change vs veh, DTX4 / RFU, TFCP2 / Fold change vs veh, TFCP2 / RFU, GMCL1 /// GMCL1P1 / Fold change vs veh, GMCL1 /// GMCL1P1 / RFU, AEBP2 / Fold change vs veh, AEBP2 / RFU, SNHG1 /// SNORD22 /// SNORD25 /// SNORD26 /// SNORD27 /// SNORD28 /// SNORD29 /// SNORD31 / Fold change vs veh, SNHG1 /// SNORD22 /// SNORD25 /// SNORD26 /// SNORD27 /// SNORD28 /// SNORD29 /// SNORD31 / Fold change (Aza/veh), C12orf56 (ProbeSet 11735607_a_at) / Fold change (ACY-1035/veh), C12orf56 (ProbeSet 11735607_a_at) / Fold change (Aza/veh), FGFR1OP (ProbeSet 11751329_s_at) / Fold change (ACY-1035/veh), FGFR1OP (ProbeSet 11751329_s_at) / Fold change (Aza/veh), VPS36 (ProbeSet 11739960_a_at) / Fold change (ACY-1035/veh), VPS36 (ProbeSet 11739960_a_at) / RFU SYPL1 (11715823_x_at) / Fold change /veh SYPL1 (11715823_x_at) / RFU IGFBP7 (11715501_s_at) / Fold change /veh IGFBP7 (11715501_s_at) / RFU REEP3 (11722064_at) / Fold change /veh REEP3 (11722064_at) / RFU IGLL1 (11728026_x_at) / Fold change /veh IGLL1 (11728026_x_at): dose or concentration left out as unconfirmed. The note with it: MV-4-11 cells, 48 hours. It counts as cell-based, human.

Take `Nc1ncn([C@@H]2O[C@H](CO)[C@@H](O)[C@H]2O)c(=O)n1` [azacitidine]: the “Fold change /veh FAM167A (11723789_a_at)” value came to 1.19.
